Measurements taken from paper PMC7703437, “In Vitro Hepatic Metabolism of Curcumin Diethyl Disuccinate by Liver S9 from Different Animal Species” (Frontiers in Pharmacology, 2020).
Values joined by “and” are separate entries in the source; they are usually repeats but may differ in a detail not shown here. Equal entries are not always repeated.

Key:
[1] = In vitro metabolism profiling of CDD in dog liver S9 (1 mg/ml); assay type: in vitro ADME, dog (beagle); details: beagle, liver S9; dog LS9 1 mg/ml; read-out: t 1/2 (CDD)
Protocol: (§1) The metabolism profiles of CDD were investigated against HLS9, MLS9, DLS9, and RLS9. A stock solution of CDD was prepared at 150 µM in 50% acetonitrile in water before use. The metabolism study was initiated by spiking 735 µl of preincubated LS9 with 15 µl of CDD stock solution, and the mixture was subsequently incubated at 37°C. The final concentrations of CDD and LS9 were 3 μM and 1 mg/ml, respectively. A 50-µl aliquot from the mixture was collected at 0.5, 1, 2, 3, 4, 5, 10, 15, 30, 45, 60, 90, and 120 min and immediately mixed with 100 µl of ice-cold acetonitrile containing 0.45 µM of internal standard DMC to terminate the metabolic reaction. […] The sample at the initial time point (0 min) was prepared as the other samples, except that heat-inactivated HLS9, MLS9, DLS9, and RLS9 (80°C for 20 min; 1 mg/ml protein) were used.
(§2) The UHPLC system consisted of an Agilent series 1290 quaternary pump with an online degasser, autosampler, column oven, and diode array detector. The mobile phase was composed of (A) 0.1% (v/v) formic acid in acetonitrile and (B) 0.1% (v/v) formic acid in water. Each solution was filtered through a nylon filter (pore size, 0.22 µm; MS® Membrane Filters; Membrane Solutions, United States) before use. The mobile phase flow rate was kept at 1.2 ml/min in a gradient mode using the following elution program: 0–3.0 min, initial A-B (40:60, v/v); 4.5–7.0 min, isocratic elution A-B [50:50, (v/v); 8.5–11.0 min, isocratic elution A-B (60:40, v/v); and 12.0–17.0 min, isocratic elution A-B (40:60, v/v)]. CDD, curcumin, and MSCUR in the supernatant were partitioned using a C8 column (4.6 mm × 50 mm, 2.7 µm; HALO, Advanced Materials Technology, United States) with reference to DMC. The detection wavelength was set at 400 nm (λ max(CDD) = 400 nm, λ max(curcumin) = 427 nm, λ max(MSCUR) = 418 nm, and λ max(DMC) = 421 nm). The column was maintained at 35°C throughout the run, and the supernatant injection volume was set at 20 µl.
(§3) The concentrations of CDD, curcumin, and MSCUR in the supernatant were determined from the standard plots, which were prepared by spiking individual working solutions of the compounds to heat-inactivated HLS9, MLS9, DLS9, and RLS9 ([Alcorn et al., 2007]; [Montoro-Garcia et al., 2009]; [Singh et al., 2010]). These working standards were extracted with 100 µl of ice-cold acetonitrile containing 0.45 µM of DMC and then 120 μl of the supernatant was diluted with 40 μl of water prior to the UHPLC analysis. The peak area ratios of CDD, curcumin, and MSCUR to the internal standard were computed against linear concentration ranges of 0.025–4.5 µM CDD, 0.025–4.5 µM curcumin, and 0.0125–0.75 µM MSCUR, respectively, with the coefficient of determination (r^2) values greater than 0.99.
(§4) The percent content of CDD and the metabolites formed upon its incubation with LS9, namely, curcumin and MSCUR, was plotted against incubation time.
(§5) The following equations were adopted to describe the changes in CDD and MSCUR content over time (t): A = A0e^−k1t (2) B= k1A0/k2−k1(e^−k1t−e^−k2t), (3) where A0 is the CDD concentration at time 0, k 1 is the degradation rate constant of CDD, and k 2 is the degradation rate constant of MSCUR. k 1 and k 2 were determined by using Eqs. 2 and 3, respectively, with nonlinear regression analysis using the SOLVER function of Microsoft Excel for Office 365 MSO (16.0.12527.20986) ([Brown, 2001]). The half-life (t 1/2) was calculated using Eq. 4: t1/2=0.693/k (4)
(§6) The in vitro intrinsic clearance (CLint,in vitro) of CDD and MSCUR in LS9 was calculated using Eq. 5: CLint, in vitro= k × [V]incubation(ml)/[P]incubation(mg protein), (5) where [V]incubation is the incubation volume in ml, and [P]incubation is the amount of LS9. […]

dog LS9 (DLS9; beagle) = assay: as above; assay type: in vitro ADME
Protocol: as §1, §2, §3, §4, §5, §6

MLS9 = assay: CDD depletion in MLS9 0.02 mg/ml (optimisation of incubation condition); assay type: in vitro ADME, monkey; details: CDD 3 μM
Protocol: (§7) The metabolism profiles of CDD and curcumin formation profile were investigated against HLS9, MLS9, DLS9 and RLS9. A stock solution of CDD was prepared at 150 µM in 50% acetonitrile in water before use. The metabolism study was initiated by spiking a 588 µl pre-incubated LS9 with 12 µl CDD stock solution, and subsequently incubated at 37°C. The final concentrations of CDD and LS9 were 3 µM and 0.02 mg/ml, respectively. A 50 µl aliquot from the mixture was collected at 0.5, 1, 2, 3, 4, 5, 10, 15, 30, 45 and 60 min and was immediately mixed with 100 µl of ice-cold acetonitrile containing 0.45 µM of internal standard DMC to terminate the metabolic reaction. […] Samples of 120 µl of supernatant wee diluted with 40 µl of water prior to UHPLC analysis (Agilent series 1290, Agilent Technology, USA) by means of protocol outlined in Materials and Methods:“In vitro Metabolism Profiling of Curcumin Diethyl Disuccinate”. The sample at 0 min was prepared as other samples except that heat-inactivated HLS9, MLS9, DLS9 and RLS9 (80°C for 20 min; 1 mg/ml protein) were used. Duplicates were conducted for each experiment.
(§8) The peak area ratios of CDD and curcumin to internal standard in the supernatant were determined. The percent contents of CDD and curcumin were plotted against incubation time. The depletion of CDD was calculated with reference to the initial concentration. The saturated substrate was defined as % depletion less than 30.

DLS9 = assay: CDD depletion in DLS9 0.02 mg/ml (optimisation of incubation condition); assay type: in vitro ADME, dog; details: CDD 3 μM
Protocol: as §7, §8

[2] = 0.5 min (selected incubation time)

CCOC(=O)CCC(=O)Oc1ccc(/C=C/C(=O)/C=C(O)/C=C/c2ccc(OC(=O)CCC(=O)OCC)c(OC)c2)cc1OC [CDD, curcumin diethyl disuccinate]
half-life at 3 µM [1]: 52.2 ± 15 s | CLint, in vitro(CDD) (dog LS9 (DLS9; beagle); dog LS9): 0.85 ± 0.29 ml min^−1 mg protein^−1 | k 1 (CDD) (dog LS9 (DLS9; beagle); dog LS9 1 mg/ml, CDD 3 µM, 37°C): 0.85 ± 0.29 min⁻¹ | CLint, in vivo(CDD) (dog LS9 (DLS9; beagle); dog, scaled from CLint,in vitro with physiologically based scaling factors): 198.61 ± 66.73 L/h/kg | CLint, in vivo total (dog LS9 (DLS9; beagle); dog, sum of CLint,in vivo(CDD) and CLint,in vivo(MSCUR)): 5,915.59 ± 535.14 L h^−1 kg^−1 | CLH (predicted hepatic clearance) (dog LS9 (DLS9; beagle); dog, well-stirred model, QH 40 ml min^−1 kg^−1, fup 0.0594): 2.38 ± 1.48 × 10^–3 L h^−1 kg^−1 | % CDD remaining (MLS9; 0.5 min): 75.32% | %Depletion of CDD (MLS9; [2]): 25% and 24.68% | % CDD remaining (MLS9; 1 min): 63.90% | %Depletion of CDD (MLS9; 1 min): 36.10% | % CDD remaining (MLS9; 2 min): 49.34% | %Depletion of CDD (MLS9; 2 min): 50.66% | % CDD remaining (MLS9; 3 min): 37.51% | %Depletion of CDD (MLS9; 3 min): 62.49% | % CDD remaining (MLS9; 4 min): 28.36% | %Depletion of CDD (MLS9; 4 min): 71.64% | % CDD remaining (MLS9; 5 min): 21.92% | %Depletion of CDD (MLS9; 5 min): 78.08% | % CDD remaining (DLS9; 0.5 min): 76.77% | %Depletion of CDD (DLS9; [2]): 23% and 23.23% | % CDD remaining (DLS9; 1 min): 66.99% | %Depletion of CDD (DLS9; 1 min): 33.01% | % CDD remaining (DLS9; 2 min): 49.79% | %Depletion of CDD (DLS9; 2 min): 50.21% | % CDD remaining (DLS9; 3 min): 42.26% | %Depletion of CDD (DLS9; 3 min): 57.74% | % CDD remaining (DLS9; 4 min): 31.30% | %Depletion of CDD (DLS9; 4 min): 68.70% | % CDD remaining (DLS9; 5 min): 25.06% | %Depletion of CDD (DLS9; 5 min): 74.94%
